Key:
Format in all cases: cell-based, mouse
MC3T3-E1 cells [1] = assay: Mineralization of murine osteoblasts, Von Kossa stain (in vitro single administration); conditions: Day 14
Experimental: As the parameters for evaluation of differentiation ability, alkaline phosphatase (ALPase) and mineralization were employed. Detection of alkaline phosphatase which is a marker of differentiation of osteoblasts was carried out on Day 8 from the beginning of the culturing by staining method. Evaluation of mineralization was carried out as follows. That is, MC3T3-E1 cells were placed in each well of 24-well plates in an amount of 50,000 cells/ml (10 times in the case of anti-cell test in Example 3). On Day 4, after confirming that the cells sufficiently reached confluency, the medium was discarded and fresh α-MEM containing 10% JCS, 50 μg/ml of L-ascorbic acid and 10 mM β-glycerophosphate was added in an amount of 0.9 ml/well, followed by adding medium containing varying concentration of IFN. Four days later, the medium was replaced with IFN-free medium, and the medium was replaced with IFN-free medium every 4 days. On Day 14, Von Kossa stain was performed to visualize the calcified foci. Expression of alkaline phosphatase activity which is a differentiation marker is an indispensable step to the subsequent mineralization.

[2] = test system: osteoclast like cells from bone marrow cells of mice of C 57 BL/6 strain; assay: Formation of osteoclast like cells from bone marrow cells of mice of C 57 BL/6 strain; conditions: Example 2, C 57 BL/6 strain bone marrow cells
Experimental: (§1) The number of viable bone marrow cells was counted using tripam blue dye exclusion test and the bone marrow cells were diluted with α-MEM containing 10% JCS, 10^−8M Vit D3, 10^−7 M dexamethasone to a population density of 1.5×10^6 cells/ml, followed by placing the resulting suspension in each well in 24-well plates in an amount of 0.45 ml/well. To each well, 50 μl of the medium containing varying concentration of IFN was added to make the volume to 0.5 ml/well and culturing was begun. At every three days, 0.4 ml of the culture medium was removed from each well and 0.4 ml of fresh medium (the above-mentioned medium containing the respective concentration of IFN) was added. On Day 8 from the beginning of the culturing, the medium was removed and the cells were fixed with mixed solution of ethyl alcohol and diethyl ether (1:1) and the cells were stained with tartrate resistant acid phosphatase (TRAP), followed by counting TRAP positive multinuclear cells with a phase contrast microscope. […] The inhibition effect of IFNγ was stronger than that of IFNβ. That is, the inhibition concentration IC50 of IFNγ was not more than 0.1 units/ml, and that of IFNβ was 0.2 units/ml.
In place of mice of ddy strain, male mice of C 57 BL/6 of 7 weeks old were used. The mice were exanguinated to death under ether anesthesia and the femur and the tibia of hind legs were collected from each mouse. The connective tissues on the surfaces of the bones were carefully removed, and both ends of each bone were cut off with scissors. The bone marrow cells were suspended in α-MEM containing 10% JCS and the suspension was flushed out through a 25 G needle attached to a syringe to collect the suspension in a centrifugal tube. The collected suspension was washed by centrifugation in the same medium at 2000 rpm at 4° C. for 5 minutes. The precipitated cells were dispersed in the above-mentioned medium and the washing by centrifugation was repeated twice. Formation of osteoclast like cells was measured by the same method as in Example 1.

[3] = test system: osteoclast like cells from bone marrow cells of mice of ddy strain; assay: Formation of osteoclast like cells from bone marrow cells of mice of ddy strain
Experimental: Bone marrow cells were prepared in accordance with the method by Takahashi et al (Takahashi, N. et al., Endocrinology, 122, 1373, 1988). Male mice of ddy strain of 7 weeks old were exanguinated to death under ether anesthesia and the femur and the tibia of hind legs were collected from each mouse. The connective tissues on the surfaces of the bones were carefully removed, and both ends of each bone were cut off with scissors. The bone marrow cells were suspended in α-Minimum Essential Medium (α-MEM, Nissui Pharmaceuticals Co.) containing 10% pre-colostrum new born calf serum (Mitsubishi Chemical, hereinafter referred to as “JCS” for short) and the suspension was flushed out through a 25 G needle attached to a syringe to collect the suspension in a centrifugal tube. The collected suspension was washed by centrifugation in the same medium at 2000 rpm at 4° C. for 5 minutes. The precipitated cells were dispersed in the above-mentioned medium and the washing by centrifugation was repeated twice, thereby preparing bone marrow cells. Murine IFN-α (hereinafter referred to as “MuIFNα” for short), Lot. B13010, 106 units/ml/vial (Calbiochem-Novabiochem International, San Diego, Calif.), murine IFN-β (hereinafter referred to as “MuIFNβ” for short), Lot M-0034, 10 units/ml/vial (Toray Industries, Inc.) and murine IFNγ (hereinafter referred to as “MuIFNγ” for short), Lot 254F3, 2.06×10^6 units/ml (Genentech, Calif.) were respectively dissolved in 10% JCS-containing α-MEM (Nissui Pharmaceuticals Co.) to the desired concentrations. Active vitamin D3 ([…], Wako Pure Chemical Industries, Ltd., hereinafter referred to as “Vit D3” for short) was dissolved in argon-saturated ethanol, and the obtained solution was diluted so as to attain the final ethanol concentration of 0.1% in all of the culture systems.
as §1
The effects of the three murine IFNs, that is, MuIFNβ, γ and α in terms of abilities to inhibit formation of osteoclast like cells from bone marrow cells in mice of ddy strain were compared. The test was carried out as in Example 1. All of the murine IFNs inhibited the formation of osteoclast like cells, and the effect was strong in the order of γ, β and α. […] Thus, the activity of IFNα to inhibit formation of osteoclasts was about 1/20 of that of IFNβ and about not more than 1/100 of that of IFNγ.

MC3T3-E1 cells [4] = assay: Proliferation of murine osteoblastic cells MC3T3-E1 (in vitro single administration)
Experimental: Murine osteoblast like cells MC3T3-E1 originated from C 57 BL/6 mouse (Kodama et al., Jap. J. Oral Biol., 23, 899, 1982) were washed with PBS(−) and the cells were dissociated by incubation in PBS(−) containing 0.1% pronase (Actinase E, Kaken Pharmaceuticals Co.), followed by dispersing the cells in α-MEM containing 10% JCS and 50 μg/ml of L-ascorbic acid (ASA). The ability to promote proliferation of cells was evaluated as follows. That is, MC3T3-E1 cells were placed in each well in 24-well plates (Corning) in an amount of 5000 cells/well. Then each IFN dilution was added to each well in an amount of 0.1 ml/well, and the culturing was begun. On Day 2, the medium was removed and the each IFN dilution was added in an amount of 0.5 ml/well (total amount of liquid: 0.5 ml/well). On Day 6, the medium was removed and the cells were washed with PBS(−) and a mixed enzyme solution of 0.1% pronase/0.1% collagenase was added to each well in an amount of 200 μl/well, followed by allowing to react at 37° C. for 15 minutes. Then α-MEM containing 10% fetal calf serum (Gibco, hereinafter referred to as “FCS” for short) was added in an amount of 300 μl/well to disperse the cells therein and the number of the cells was counted with a Coulter counter.

MC3T3-E1 cells [5] = assay: Quantification of calcium in calcified foci of MC3T3-E1; conditions: MC3T3-E1, Day 14
Experimental: MC3T3-E1 cells were placed in each well in 24-well plates in an amount of 50,000 cells/well and cultured to confluency. The medium was removed and fresh α-MEM containing 10% JCS, 50 μg/ml of L-ascorbic acid and 10 mM β-glycerophosphate was added in an amount of 0.9 ml/well, followed by adding 0.1 ml/well of medium containing varying concentration of IFN. The medium was replaced with IFN-free medium every 4 days. On Day 14, the medium was removed and the cells were lightly washed with Hank's solution. Anhydrous ethanol was added in an amount of 1 ml/well and fixation was carried out at room temperature for 15 minuets. Then the anhydrous ethanol was replaced with fresh anhydrous ethanol in an amount of 1 ml/well and 5 minutes later, each well was dried in the air. Then 1N hydrochloric acid was added in an amount of 1 ml/well and extraction was carried out at room temperature for 30 minutes. The total contents of each well were transferred to an Eppendorf tube and centrifuged at 1800×g at 4° C. for 10 minutes The amount of calcium in the supernatant was measured by Calcium C Test Wako and the amount of inorganic phosphorus in the supernatant was measured by Phospha B Test Wako. […] The IC50 value was as low as about 10 units/ml (FIG. 5).

IC50 value of inhibition of mineralization (MC3T3-E1 cells [1]; Von Kossa): 3-4 units/ml | IC50 of formation inhibition of osteoclast like cells ([2]; Day 8): 1.5 units/ml | inhibition concentration IC50 of formation of osteoclast like cells ([3]; Example 1, Vit D3 + dexamethasone, Day 8, TRAP positive multinuclear cells): not more than 0.1 units/ml | IC50 of inhibition of formation of osteoclast like cells ([3]; Example 8 comparison of three murine IFNs): not more than 0.1 units/ml | IC50 value of inhibition of calcium deposition (MC3T3-E1 cells [5]): about 10 units/ml
Substance: MuIFNγ: murine interferon γ, standard product Lot 254F3, provided by Genentech
concentration at which the inhibition effect on mineralization was expressed (MC3T3-E1 cells [1]): 10 units/ml | influence on mineralization (calcified foci, Von Kossa stain) (MC3T3-E1 cells [1]): strong and dose dependent inhibition action on mineralization | inhibition of formation of osteoclast like cells [2]: strongly inhibited formation of osteoclast like cells | inhibition of formation of osteoclast like cells ([3]; Example 1, Day 8, TRAP positive multinuclear cells): strongly inhibited formation of osteoclast like cells | inhibition of proliferation of MC3T3-E1 cells (MC3T3-E1 cells [4]; 10,000 units/ml, cell count on Day 6): about 30% | dose from which slight inhibition of proliferation was observed (MC3T3-E1 cells [4]; MC3T3-E1, Day 6): 1 unit/ml | calcium deposition smaller than the control (MC3T3-E1 cells [5]; 1000 units/ml): 70%

Reference: patent publication US20050180954A1, “Drug for treating bone disorders” (priority 1995, published 2005)
